Measurements reported in patent US4208514A, “4(3H)-Oxobenzo-2,1,3-thiadiazine-2,2-dioxides” (The Dow Chemical Company, priority 1976, dated 1980).

Experiments:
Format in all cases: in vivo
Annual Morning Glory = assay: General post-emergent herbicidal activity at 10 lbs/acre, Annual Morning Glory; settings: Ipomoea, post-emergence, 336 h
Description: (§1) Various species of plants, both broadleaf weeds and valuable crops, were planted in beds of good agricultural soil in a greenhouse. After the plants had emerged and grown to a height of about 2-6 inches, a portion of the plants were sprayed with an aqueous mixture, made by mixing a selected active ingredient and […], […] Other portions of the plants were left untreated to serve as controls. In each test the active ingredient was a 3-methylethyl-1H-2,1,3-benzothiadiazin-4(3H)-one-2,2-dioxide having a substituent in the one position according to the invention.
(§2) After a period of 2 weeks the selective effect of the test ingredient on the plants was evaluated by a comparison with the control group of plants.

Nutsedge = assay: General post-emergent herbicidal activity at 10 lbs/acre, Nutsedge; settings: Cyperus, post-emergence, 336 h
Description: as §1, §2

Velvet Leaf [1] = assay: General post-emergent herbicidal activity at 10 lbs/acre, Velvet Leaf; settings: post-emergence, 336 h
Description: as §1, §2

Pig Weed = assay: General post-emergent herbicidal activity at 10 lbs/acre, Pig Weed; settings: post-emergence, 336 h
Description: as §1, §2

Jimson Weed = assay: Selective post-emergent greenhouse test, Jimson Weed; settings: post-emergence, 336 h, 2 weeks; for pest or weed control at 358.672 g/ha: 0.32 lbs/acre; for pest or weed control at 706.135 g/ha: 0.63 lbs/acre
Description: (§3) So as to illustrate clearly the phytotoxic properties of the various active ingredients of the present invention, a group of controlled greenhouse experiments is described below.
(§4) Various species of plants, both broadleaf weeds and valuable crops, were planted in beds of good agricultural soil in a greenhouse. After the plants had emerged and grown to a height of about 2-6 inches, a portion of the plants were sprayed with an aqueous mixture, made by mixing a selected active ingredient and emulsifier or dispersant with water to provide solution containing 250 or 125 ppm active ingredient, employing sufficient amounts of the treating composition to provide low post emergent application rates of about 0.63 or 0.32 pounds per acre. Other portions of the plants were left untreated to serve as controls. In each test the active ingredient was a 3-methylethyl-1H-2,1,3-benzothiadiazin-4(3H)-one-2,2-dioxide having a substituent in the one position according to the invention.
as §2

Soybean = assay: Selective post-emergent greenhouse test, Soybean (crop injury); settings: Glycine max, post-emergence, 336 h, 2 weeks, read-out: % Control Soybean; for plant injury at 358.672 g/ha: 0.32 lbs/acre; for plant injury at 706.135 g/ha: 0.63 lbs/acre
Description: as §3, §4, §2

Cotton = assay: Selective post-emergent greenhouse test, Cotton (crop injury); settings: Gossypium hirsutum, post-emergence, 336 h, post-emergent, 2 weeks, crop, read-out: % Control Cotton; for plant injury at 358.672 g/ha: 0.32 lbs/acre; for plant injury at 706.135 g/ha: 0.63 lbs/acre
Description: as §3, §4, §2

Velvet Leaf [2] = assay: Selective post-emergent greenhouse test, Velvet Leaf; settings: post-emergence, 336 h, 2 weeks; for pest or weed control at 358.672 g/ha: 0.32 lbs/acre; for pest or weed control at 706.135 g/ha: 0.63 lbs/acre
Description: as §3, §4, §2

SMILES | pest or weed control at 11208.5 g/ha (Annual Morning Glory) | pest or weed control at 11208.5 g/ha (Nutsedge) | pest or weed control at 11208.5 g/ha (Velvet Leaf [1]) | pest or weed control at 11208.5 g/ha (Pig Weed) | pest or weed control at 358.672 g/ha (Jimson Weed) | pest or weed control at 706.135 g/ha (Jimson Weed) | plant injury at 358.672 g/ha (Soybean) | plant injury at 706.135 g/ha (Soybean) | plant injury at 358.672 g/ha (Cotton) | plant injury at 706.135 g/ha (Cotton) | pest or weed control at 358.672 g/ha (Velvet Leaf [2]) | pest or weed control at 706.135 g/ha (Velvet Leaf [2])
CCCCOC(=O)N1c2ccccc2C(=O)N(C(C)C)S1(=O)=O [CO2 (CH2)3 CH3] | 100% | 95% | 100% | 100% |  |  |  |  |  |  |  | 
CC(C)N1C(=O)c2ccccc2N(S(C)(=O)=O)S1(=O)=O [SO2 CH3, 1H-2,1,3-Benzothiadiazin-4(3H)-one: 3-(1-methylethyl)-1-methylsulfonyl-; 2,2-dioxide] | 100% | 20% | 100% | 100% |  |  |  |  |  |  |  | 
COC(=O)N1c2ccccc2C(=O)N(C(C)C)S1(=O)=O [CO2 CH3] | 100% | 50% | 100% | 100% | 100% | 100% | 0% | 0% | 0% | 10% | 100% | 100%
CC(=O)N1c2ccccc2C(=O)N(C(C)C)S1(=O)=O [COCH3, 1H-2,1,3-Benzothiadiazin-4(3H)-one: 1-acetyl-3-(1-methyl-ethyl)-; 2,2-dioxide] | 100% | 95% | 100% | 100% | 60% | 60% | 0% | 0% | 5% | 0% | 100% | 100%
CC(C)N1C(=O)c2ccccc2N(C(=O)CCl)S1(=O)=O [COCH2 Cl, 1-(2-Chloroacetyl)-3-(1-methylethyl)-1H-2,1,3-benzothiadiazin-4(3H)-one-2,2-Dioxide] | 100% | 100% | 100% | 100% | 100% | 100% | 10% | 10% | 20% | 70% | 70% | 100%
CC(Cl)C(=O)N1c2ccccc2C(=O)N(C(C)C)S1(=O)=O (centres unmarked) [COCHClCH3, 1H-2,1,3-Benzothiadiazin-4(3H)-one: 1-(2-chloro-1-oxopropyl)-3-(1-methylethyl)-; 2,2-dioxide] | 100% | 95% | 100% | 100% | 100% | 100% | 0% | 0% | 0% | 100% | 100% | 100%
CC(C)N1C(=O)c2ccccc2N(S(=O)(=O)CCl)S1(=O)=O [SO2 CHCl, 1H-2,1,3-Benzothiadiazin-4(3H)-one: 1-chloromethylsulfonyl-3-(1-methylethyl)-; 2,2-dioxide] | 80% | 90% | 100% | 100% |  |  |  |  |  |  |  | 
CCS(=O)(=O)N1c2ccccc2C(=O)N(C(C)C)S1(=O)=O [SO2 CH2 CH3, 1H-2,1,3-Benzothiadiazin-4(3H)-one; 1-Ethylsulfonyl-3-(1-methylethyl)-; 2,2-dioxide] | 100% | 85% | 100% | 100% |  |  |  |  |  |  |  | 
CSC(=O)N1c2ccccc2C(=O)N(C(C)C)S1(=O)=O [COSCH3, 1H-2,1,3-Benzothiadiazin-1-carbothioic acid: 3,4-Dihydro-3-(1-methylethyl)-4-oxo-, S-methyl ester; 2,2-Dioxide] | 100% | 85% | 100% | 100% | 100% | 100% | 0% | 0% | 90% | 100% | 90% | 100%
CCCS(=O)(=O)N1c2ccccc2C(=O)N(C(C)C)S1(=O)=O [SO2 CH2 CH 2 CH3, 1H-2,1,3-Benzothiadiazin-4(3H)-one: 3-(1-methylethyl)-1-propylsulfonyl-; 2,2-dioxide] | 100% | 90% | 100% | 100% |  |  |  |  |  |  |  | 
CCCC(=O)N1c2ccccc2C(=O)N(C(C)C)S1(=O)=O [COCH2 CH2 CH3] | 100% | 90% | 100% | 100% |  |  |  |  |  |  |  | 
CCCCS(=O)(=O)N1c2ccccc2C(=O)N(C(C)C)S1(=O)=O [SO2 (CH2)3 CH3, 1H-2,1,3-Benzothiadiazin-4(3H)-one: 1-Butylsulfonyl-3-(1-methylethyl)-; 2,2-dioxide] | 100% | 85% | 100% | 100% |  |  |  |  |  |  |  | 
COCC(=O)N1c2ccccc2C(=O)N(C(C)C)S1(=O)=O [COCH2 OCH3, 1H-2,1,3-Benzothiadiazin-4(3H)-one: 1-methoxyacetyl-3-(1-methylethyl)-; 2,2-dioxide] | 100% | 90% | 100% | 100% | 100% | 100% | 0% | 0% | 0% | 0% | 80% | 100%
CCCOC(=O)N1c2ccccc2C(=O)N(C(C)C)S1(=O)=O [CO2 CH2 CH2 CH3] | 100% | 90% | 100% | 100% |  |  |  |  |  |  |  | 
C=CCOC(=O)N1c2ccccc2C(=O)N(C(C)C)S1(=O)=O [CO2 CH2 CHCH2, 1H-2,1,3-Benzothiadiazine-1-carboxylic Acid: 3,4-dihydro-3-(1-methylethyl)-4-oxo-, 2-Propenyl Ester, 2,2-Dioxide] | 100% | 95% | 100% | 100% | 100% | 100% | 0% | 0% | 50% | 50% | 100% | 100%
CC(C)N1C(=O)c2ccccc2N(S(=O)(=O)C(C)C)S1(=O)=O [SO2 CH(CH3)2, 1H-2,1,3-Benzothiadiazin-4(3H)-one: 3-(1-methylethyl)-1-(1-methylethylsulfonyl)-; 2,2-dioxide] | 100% | 85% | 100% | 100% |  |  |  |  |  |  |  | 
CCN(CC)S(=O)(=O)N1c2ccccc2C(=O)N(C(C)C)S1(=O)=O [SO2 N(C2 H5)2] | 100% | 60% | 100% | 100% |  |  |  |  |  |  |  | 
CC(C)OC(=O)N1c2ccccc2C(=O)N(C(C)C)S1(=O)=O [CO2 CH(CH3)2] | 50% | 70% | 100% | 0% |  |  |  |  |  |  |  | 
